The values that follow come from patent US20250084082A1, “HUPERZINE B CRYSTAL AND PREPARATION AND APPLICATION THEREOF” (priority 2021, published 2025).

The target in one data set is T1, BuchE (Rattus norvegicus, UniProt Q9JKC1).
T1 construct: The effect of Huperzine B on BuchE activity in the serum of rats; from tissue; host or cells: SD rat serum (ex vivo after gavage)
In words: Cholinesterase inhibitory activity in vivo: BuchE activity in rat serum after gavage. Set-up: species or system SD rats. How it is done: Experimental animals: SD rats, clean grade, male, body weight 180-200 g, provided by Shanghai SLAC Laboratory Animal Co., Ltd, free to drink and ingest during the experimental period, indoor temperature 22-24° C., humidity 45-70%.
Main reagents: S-Butyrylthiocholine iodide, S-Acetylthiocholine iodide, Kaumas Brilliant Blue, sodium hydroxide, ethyl carbamate (urethane), phosphoric acid, sodium chloride, sodium bicarbonate, potassium dihydrogen phosphate, ethanol, sodium dodecyl sulfate, 5,5′-Dithiobis-(2-nitrobenzoic acid) (DTNB), hydrochloric acid; the above chemical reagents were purchased from Sinopharm Chemical Reagent Co., Ltd. Physiological saline, product of Shanghai Bangjing Industry Co., Ltd; bovine serum albumin, purchased from Meilun Biologicals.
The equation for calculating the activity and the activity rate of “butyrylcholinesterase” was the same as that for “acetylcholinesterase”.
Statistical analysis: SPSS 18 statistical software and EXCEL were applied. Measurement data were expressed as “mean±standard deviation (x±s)”, t-test was used for comparison between two groups, and LSD method was used for pairwise comparison between groups when there was homogeneity of variance, and Dunnett's method was used for analysis when there was heterogeneity of variance. P<0.05 indicates significant differences.

A short description of data set [1]: Hygroscopicity test (Chinese Pharmacopoeia 2020). It is filed as physicochemical. How it is done:
The test was carried out with reference to the requirements of hygroscopicity test in the General Technical Requirements of Part IV of the Chinese Pharmacopoeia 2020 Edition.
Methods: A dry stoppered glass weighing flask (outer diameter 50 mm, height 15 mm) was placed in a suitable 25° C.±1° C. constant temperature desiccator (with ammonium chloride or ammonium sulfate saturated solution placed in the lower part) or an artificial climate chamber (with a set temperature of 25° C.±1° C. and a relative humidity of 80%±2%) prior to the test, and the weight (m1) was weighed precisely.
The thickness of the test sample was generally 1 mm, and the weight (m2) was weighed precisely. The weighing flask was left open, and was placed in the above constant temperature and humidity conditions together with the cap of the flask for 24 hours.
The weighing flask was closed with the cap and weighed precisely (m3).

A short description of data set [2]: Stability of crystals: high temperature test (60° C.). It is filed as physicochemical. The source says:
(§1) The conditions and methods for detecting the relevant substances involved in the present invention are high performance liquid chromatography determination.
The samples were taken and tested on day 5 and day 10, respectively, and the results were compared with those on day 0.The results are shown in Table 5.

The nature of data set [3]: Stability of crystals: high humidity test (RH 75±5%). It is filed as physicochemical. Particulars: around 25° C.
Description: as §1
The samples were taken and tested on day 5 and day 10, respectively, and the results were compared with that of day 0.

A short description of data set [4]: Stability of crystals: strong light irradiation test (4,500±500 Lx). It is filed as physicochemical.
Description: as §1
The distance was adjusted so that the light intensity was 4,500±500 Lx. The samples were taken and tested on day 5 and day 10, respectively, and the results were compared with that of day 0.

[5] abbreviates: 25° C.±1° C., relative humidity 80%±2%, 24 hours.

T1 sequence (Q9JKC1 24-597): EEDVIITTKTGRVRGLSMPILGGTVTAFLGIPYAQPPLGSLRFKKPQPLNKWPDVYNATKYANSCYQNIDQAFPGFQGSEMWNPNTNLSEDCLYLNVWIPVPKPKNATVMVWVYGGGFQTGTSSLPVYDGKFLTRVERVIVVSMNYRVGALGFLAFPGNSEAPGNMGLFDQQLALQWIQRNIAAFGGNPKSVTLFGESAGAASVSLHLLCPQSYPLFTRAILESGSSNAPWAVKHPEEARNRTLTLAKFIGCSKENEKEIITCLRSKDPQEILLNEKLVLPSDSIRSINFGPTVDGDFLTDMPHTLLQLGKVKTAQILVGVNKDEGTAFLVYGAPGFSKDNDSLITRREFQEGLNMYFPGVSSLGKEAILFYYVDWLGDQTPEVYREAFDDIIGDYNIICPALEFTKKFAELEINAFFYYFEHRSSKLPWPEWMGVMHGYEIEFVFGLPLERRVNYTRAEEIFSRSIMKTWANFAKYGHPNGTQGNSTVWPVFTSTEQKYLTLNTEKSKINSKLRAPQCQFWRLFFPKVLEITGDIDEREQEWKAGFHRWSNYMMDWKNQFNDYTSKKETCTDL

As a reminder, the inhibition is the change of the read-out against control, counted positive when it falls. `CC1=CC2Cc3[nH]c(=O)ccc3C3(C1)NCCCC23` [hupB, (4aR, 5R, 10bR)-1,2,3,4,4a,4,6,10b octahydro-12-methyl-5,10b-propeno-1,7-phenanthrolin-8 (7H)-one]: the inhibition at 0.12 mg/kg at BuchE (po, rat serum BuchE, 0.12 mg/kg by gavage, x±s, read-out: Inhibition rate (%)) is 1 ± 46.5%. Further, the inhibition at 0.24 mg/kg on BuchE (po, rat serum BuchE, 0.24 mg/kg by gavage, x±s, read-out: Inhibition rate (%)) was found to be 19.9 ± 28.1%. Further, on BuchE (po, rat serum BuchE, 0.48 mg/kg by gavage, x±s, read-out: Inhibition rate (%)), the inhibition at 0.48 mg/kg was 29.2 ± 13.7%. Besides, the “Serum BuchE (nmol/min/mg protein)” value on BuchE (rat serum, 0.12 mg/kg by gavage, x±s) is reported as 6.83 ± 3.21 nmol/min/mg protein; on BuchE (rat serum, 0.24 mg/kg by gavage, x±s) it was 5.53 ± 1.94 nmol/min/mg protein; at BuchE (rat serum, 0.48 mg/kg by gavage, x±s), 4.88 ± 0.94 nmol/min/mg protein.
Consider `CC1=CC2Cc3[nH]c(=O)ccc3C3(C1)NCCCC23` [Crystal form A, (4aR, 5R, 10bR)-1,2,3,4,4a,4,6,10b octahydro-12-methyl-5,10b-propeno-1,7-phenanthrolin-8 (7H)-one], for which, in data set [1] (setting [5]), the “Conclusion: (hygroscopicity)” value is on record as “No or almost no”. In data set [1] (setting [5]), the “Percentage of weight gain (%)” value is listed as 0.05%. Moreover, the “hygroscopicity (in words)” value in data set [1] (compared with Huperzine B crystal form B) is listed as “low hygroscopicity”. Also, the Appearance result in data set [2] (day 0) is recorded as “Off-white”; in data set [2] (day 5), “Off-white”; in data set [2] (day 10) it was “Off-white”; in data set [3] (day 0), “Off-white powder”; in data set [3] (day 5), “Off-white powder”; in data set [3] (day 10), “Off-white powder”. The Appearance result in data set [4] (day 0), in data set [4] (day 5) and in data set [4] (day 10) was “Off-white powder” in each case. The Content in data set [2] (day 0) came out at 100.1%; in data set [2] (day 5), 100.2%; in data set [2] (day 10) it was 99.7%; in data set [3] (day 0) it was 100.1%; in data set [3] (day 5) it was 100.2%; in data set [3] (day 10) it was 99.9%. Also, the Content in data set [4] (day 0) came out at 100.1%; in data set [4] (day 5), 99.8%; in data set [4] (day 10), 98.9%. Moreover, the relevant substances turned out to be 0.12 in data set [2] (day 0); 0.19 in data set [2] (day 5); 0.21 in data set [2] (day 10); 0.12 in data set [4] (day 0); 0.22 in data set [4] (day 5); 0.28 in data set [4] (day 10). Besides, the results for the Moisture in data set [3] (day 0), in data set [3] (day 5) and in data set [3] (day 10) were 6.93%, 6.95% and 6.98%, respectively. For the same compound, the “effect on BuchE activity in the rat serum (in words)” value on BuchE (rat serum) was “certain inhibitory effect”.
Consider `CC1=CC2Cc3[nH]c(=O)ccc3C3(C1)NCCCC23` [Crystal form B, (4aR, 5R, 10bR)-1,2,3,4,4a,4,6,10b octahydro-12-methyl-5,10b-propeno-1,7-phenanthrolin-8 (7H)-one], for which the “Percentage of weight gain (%)” value in data set [1] (setting [5]) is on record as 2.88%. Moreover, the Appearance entry is listed as “Off-white” in data set [2] (day 0); “Off-white” in data set [2] (day 5); “Off-white” in data set [2] (day 10); “Off-white powder” in data set [3] (day 0); “Off-white powder” in data set [3] (day 5); “Off-white powder” in data set [3] (day 10). The Appearance result in data set [4] (day 0), in data set [4] (day 5) and in data set [4] (day 10) was “Off-white powder” in each case. Further, the Content was 99.8% in data set [2] (day 0); 99.5% in data set [2] (day 5); 98.9% in data set [2] (day 10); 99.8% in data set [3] (day 0); 99.7% in data set [3] (day 5); 99.6% in data set [3] (day 10). The Content in data set [4] (day 0) is given as 99.8%; in data set [4] (day 5) it was 99.5%; in data set [4] (day 10), 98.6%. Besides, the relevant substances in data set [2] (day 0) came to 0.18; in data set [2] (day 5), 0.29; in data set [2] (day 10), 0.41; in data set [4] (day 0), 0.18; in data set [4] (day 5) it was 0.32; in data set [4] (day 10) it was 0.49. In addition, the Moisture is 6.13% in data set [3] (day 0), 7.13% in data set [3] (day 5) and 7.53% in data set [3] (day 10).
